According to patent publication US8691867B2, “Use of benzo-fused heterocycle sulfamide derivatives for the treatment of substance abuse and addiction” (Janssen Pharmaceutica NV, priority 2005, dated 2014):
Each block holds one molecule with its values, some of them ahead of it.

Experiments:
[1] = tested on: selectively-bred alcohol preferring rats; test: Alcohol Preferring Rats In Vivo Model (two-bottle choice); set-up: species or system rat; conditions: for 6 hr Ethanol (alcohol intake) / 6 hr Preference (alcohol preference): 6 h after administration; for 6 hr Ethanol (alcohol intake) / 6 hr Preference (alcohol preference) / 24 hr Ethanol (alcohol intake) / 24 hr Preference (alcohol preference): mean ± SEM; for 24 hr Ethanol (alcohol intake) / 24 hr Preference (alcohol preference): 24 h after administration
Method: Adult male selectively-bred alcohol preferring rats (which are known in the art to be useful for the study of the effect of test compounds on vountary alcohol intake) were grouped into three groups: vehicle and Compound #8 (50 and 100 mg/kg, po). Rats were housed individually in wire mesh cages under a constant room temperature of 22±1° C. and 12:12 light-dark cycle (8:00-20:00, dark). The animals were fed Agway Prolab Rat/Mouse/ Hamster 3000 formula and water ad libitum.
Alcohol intake was determined using the standard two-bottle choice method. Animals were first given free access to water in a graduated Richter tube for 2 days. Then they were given access to only a solution of 10% (v/v) ethanol for 3 consecutive days. During this period animals became accustomed to drinking from Richter tubes and to the taste and pharmacological effects of alcohol. Thereafter, they were given free access to both water and a solution of 10% alcohol for at least 4 consecutive weeks and throughout the study period. Rats had free access to food. Water and alcohol intake were recorded at 4, 6 and 24 hours after the treatment, whereas food intake was measured at 24 hour. Animals' body weight was measured every day.
After establishment of a stable baseline for alcohol, food, and water intake, rats were administered either vehicle or Compound #8 via oral gavage using a cross-over design with random assignment. To be able to compare the efficacy of these compounds on alcohol intake with an established FDA-approved drug, naltrexone, was included as a positive control. Same rats were given an oral dose of naltrexone (20mg/kg). The interval between treatments was at least 3 days. Alcohol and water intake were recorded 4, 6 and 24 h after the drug administration and food intake was recorded at 24 hr. A total of 8-10 animals per group were used.
The results below are presented as means ±SEM. Alcohol intake (g/kg) was calculated by multiplying the volume of alcohol consumed in ml by 10% and 0.7893 (ethanol density)/body weight in kg. Alcohol preference, expressed as percentage, was calculated as follows: (volume of alcohol consumed in ml/total fluid intake in ml)×100 (Rezvani and Grady, 1994; Rezvani et al., 1997). Statistical differences between drug-treated and control groups were determined by using ANOVA and Turkey Student's t test for multiple comparison.

Structure (SMILES): CN(CC1COc2ccccc2O1)S(N)(=O)=O (racemic)
- melting point: 97 to 98 °C

Structure (SMILES): NS(=O)(=O)NC[C@H]1COc2cc(Cl)ccc2O1 [Compound #8, (2S)-(−)-N-(6-Chloro-2,3-dihydro-benzo[1,4]dioxin-2-ylmethyl)-sulfamide]
- 6 hr Ethanol (alcohol intake) ([1]; 50 mg/kg po): 1.28 ± 0.25 g/kg
- 6 hr Preference (alcohol preference) ([1]; 50 mg/kg po): 67 ± 11%
- 24 hr Ethanol (alcohol intake) ([1]; 50 mg/kg po): 4.79 ± 0.5 g/kg
- 24 hr Preference (alcohol preference) ([1]; 50 mg/kg po): 77 ± 7%
- 6 hr Ethanol (alcohol intake) ([1]; 100 mg/kg po): 1.33 ± 0.17 g/kg
- 6 hr Preference (alcohol preference) ([1]; 100 mg/kg po): 75 ± 8%
- 24 hr Ethanol (alcohol intake) ([1]; 100 mg/kg po): 4.35 ± 0.66 g/kg
- 24 hr Preference (alcohol preference) ([1]; 100 mg/kg po): 70 ± 9%
- effect on ethanol consumption ([1]; alcohol-preferring rats, 6 h post-dosing, 50 and 100 mg/kg dose): decreased ethanol consumption

Structure (SMILES): O=C1CC[C@@]2(O)[C@H]3Cc4ccc(O)c5c4[C@@]2(CCN3CC2CC2)[C@H]1O5 [Naltrexone, naltrexone, reference compound]
- 6 hr Ethanol (alcohol intake) ([1]; 20 mg/kg oral): 0.77 ± 0.24 g/kg
- 6 hr Preference (alcohol preference) ([1]; 20 mg/kg oral): 64 ± 12%
- 24 hr Ethanol (alcohol intake) ([1]; 20 mg/kg oral): 4.48 ± 0.57 g/kg
- 24 hr Preference (alcohol preference) ([1]; 20 mg/kg oral): 76 ± 9%

Next, values leading:

- melting point: 100 to 101 °C
Structure (SMILES): NS(=O)(=O)NCC1CCc2ccccc2O1 (stereo not drawn)

- melting point: 101 to 103 °C
Structure (SMILES): NS(=O)(=O)NCCC1COc2ccccc2O1 (stereo not drawn)

- melting point: 119 to 121 °C
Structure (SMILES): NS(=O)(=O)NC[C@H]1COc2cc(Cl)c(Cl)cc2O1

- melting point: 76 to 78 °C
Structure (SMILES): CN(C)S(=O)(=O)NCC1COc2ccccc2O1 (racemic)
